In patent US20260183303A1, “PDK1 REGULATORY COMPOUND AND COMPOSITION CONTAINING THE SAME” (PROVIBIO CO., LTD., priority 2024, published 2026):

Experiments:
[1] = tested on: T cells isolated from mouse spleens; assay: T cell proliferation inhibition (CFSE flow cytometry, anti-CD3/anti-CD28 activation); assay type: cell-based, C57BL/6 mice; settings: mouse spleen T cells, CD3/CD28 activated, cultured three days
Protocol: To verify the T cell proliferation inhibitory effect of the compounds according to the present invention, the following experiment was performed based on flow cytometry analysis using carboxyfluorescein diacetate succinimidyl ester (CFSE), a fluorescent dye that binds to intracellular molecules via covalent bonds.
Spleens were extracted from 7-week-old C57BL/6 mice, ground, and then separated into single cells using a strainer ([…], SPL). Red blood cells were removed using ACK (Ammonium-Chloride-Potassium) lysis buffer to isolate white blood cells.
Finally, using a MACS Magnetic Stand and LS column, T cells were isolated from the spleen.
The T cells isolated from the spleen were resuspended in 1 mL of free medium (RPMI-1640+200 U/mL penicillin+200 μg/mL streptomycin), and 0.3 μL of CFSE (10 mM) was added. The mixture was incubated at 37° C. for 5 minutes.
Free medium (10 mL) was added to stop the reaction, and the cells were centrifuged to obtain the cell pellet.
RPMI 1640 medium containing 10% FBS, 100 U/mL penicillin, 100 μg/mL streptomycin, and resuspended the cells. The cells were then seeded into a 96-well plate at a density of 2×10^5 cells per well and activated with CD3 and CD28 antibodies ([…]) to activate T cells.
The compound diluted in DMSO was added at concentrations of 10 nM, 100 nM, 1 μM, […], 30 μM, and 50 µM, with three wells per concentration, and cultured at 37° C. and 5% CO2 for three days. The cells were then analyzed using a FACS Canto instrument.
The proliferation inhibition rate (%) was calculated using the following formula: […]

[2] = tested on: Human B Lymphocyte cell line, SU-DHL-8; assay: Relative cell viability (CCK-8), SU-DHL-8; assay type: cell-based; settings: 48 hours, untreated cells (DMSO) = 100%
Protocol: Human-derived B lymphoma cell line SU-DHL-8 (Cat. #CRL-2961) purchased from ATCC was cultured in RPMI-1640 medium containing […], 100 U/mL penicillin, and 100 μg/mL streptomycin.
The cell culture medium was then harvested, centrifuged at 1,300 rpm for 5 minutes, and the supernatant was removed. The cells were resuspended in the same medium and dispensed into a 96-well plate (Costar 96-well cell culture plate, Corning) at 90 μL per well, resulting in the conditions specified in Table 5.
Then, 10 μL of CCK-8 was added to each well, and the plates were incubated again at 37° C. in a 5% CO2 incubator for 4 hours.
In other words, when the survival rate of untreated cells (DMSO) is set at 100%, the relative cell survival rate in each group treated with the drug at different concentrations is indicated.

Structure (SMILES) | Proliferation inhibition rate (%) ([1]; 10 nM) | Proliferation inhibition rate (%) ([1]; 100 nM) | Proliferation inhibition rate (%) ([1]; 1 μM) | Proliferation inhibition rate (%) ([1]; 10 μM) | Proliferation inhibition rate (%) ([1]; 30 μM) | Proliferation inhibition rate (%) ([1]; 50 μM) | Relative cell viability (%) ([2]; SU-DHL-8, 1 μM) | Relative cell viability (%) ([2]; SU-DHL-8, 10 μM) | Relative cell viability (%) ([2]; SU-DHL-8, 30 μM) | Relative cell viability (%) ([2]; SU-DHL-8, 50 μM)
CN(C)C1CCN(CCCCCCCCCCCCNC(=O)c2cccnc2N)C1 (stereo not shown) [Compound 19, 2-Amino-N-(12-(3-(dimethylamino)pyrrolidin-1-yl)dodecyl) nicotinamide] | −14.40% | 100.00% | 100.00% | 100.00% | 100.00% | 100.00% | 8.51% | 7.51% | 5.98% | 5.08%
CC1CN(CCCCCCCCCCCCNC(=O)c2cccnc2N)CC(C)O1 (stereo not shown) [Compound 21, 2-Amino-N-(12-(2,6-dimethylmorpholino)dodecyl) nicotinamide] |  | 100.00% | 100.00% | 100.00% | 100.00% | 100.00% |  |  | 3.70% | 
CC1CCN(CCCCCCCCCCCCNC(=O)c2cccnc2N)C1 (stereo not shown) [Compound 24, 2-Amino-N-(12-(3-methylpyrrolidin-1-yl)dodecyl) nicotinamide] |  | 100.00% | 100.00% | 100.00% | 100.00% | 100.00% |  |  | 0.62% | 
Nc1ncccc1C(=O)NCCCCCCCCCCCCN1CCS(=O)(=O)CC1 [Compound 25, 2-Amino-N-(12-(1,1-dioxidothiomorpholino)dodecyl) nicotinamide] |  |  | 100.00% | 100.00% | 100.00% | 100.00% |  |  | 0.11% | 0.95%
Nc1ncccc1C(=O)NCCCCCCCCCCCCN1CCC(F)C1 (stereo not shown) [Compound 26, 2-Amino-N-(12-(3-fluoropyrrolidin-1-yl)dodecyl) nicotinamide] |  | 100.00% | 100.00% | 100.00% | 100.00% | 100.00% | 1.70% |  | 0.05% | 
Nc1ncccc1C(=O)NCCCCCCCCCCCCN1CCN(Cc2ccc(F)cc2)CC1 [Compound 27, 2-Amino-N-(12-(4-(4-fluorobenzyl)piperazin-1-yl)dodecyl) nicotinamide] | 2.27% | 83.33% | 100.00% | 100.00% | 100.00% | 100.00% | 6.24% | 4.97% | 2.03% | 0.56%
COc1ccc(CN2CCN(CCCCCCCCCCCCNC(=O)c3cccnc3N)CC2)cc1 [Compound 28, 2-Amino-N-(12-(4-(4-methoxybenzyl)piperazin-1-yl)dodecyl) nicotinamide] | −0.27% | 100.00% | 100.00% | 100.00% | 100.00% | 100.00% | 5.46% | 2.82% | 0.33% | 
CN(C)CCN1CCN(CCCCCCCCCCCCNC(=O)c2cccnc2N)CC1 [Compound 33, 2-Amino-N-(12-(4-(2-(dimethylamino)ethyl)piperazin-1-yl)dodecyl) nicotinamide] | −36.05% | 100.00% | 100.00% | 100.00% | 100.00% | 100.00% |  | 4.32% | 3.35% | 2.66%
CC1CNCCN1CCCCCCCCCCCCNC(=O)c1cccnc1N (stereo not shown) [Compound 35, 2-Amino-N-(12-(2-methylpiperazin-1-yl)dodecyl) nicotinamide] |  | 100.00% | 100.00% | 100.00% | 100.00% | 100.00% |  | 0.64% | 0.42% | 
Nc1ncccc1C(=O)NCCCCCCCCCCCCN1CCC(Oc2ccncc2)CC1 [Compound 38, 2-Amino-N-(12-(4-(pyridin-4-yloxy)piperidin-1-yl)dodecyl) nicotinamide] |  | 100.00% | 100.00% | 100.00% | 100.00% | 100.00% |  | 3.30% |  | 
